Results as given in patent publication US10750743B2, “Pyridazinone herbicides” (E.I. DU PONT DE NEMOURS AND COMPANY, priority 2015, dated 2020).

Tests used:
Format in all cases: in vivo
[1] = system: barnyardgrass (Echinochloa crus-galli); experiment: Test A preemergence, directed soil spray, visual injury rating; conditions: 0 is no effect, 100 is complete control
How it was run: (§1)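 Seeds sown in a loam soil–sand blend received a directed preemergence soil spray of test chemical in a non-phytotoxic solvent mixture with surfactant. Postemergence plants were sprayed at 2 to 10 cm, one- to two-leaf stage. After approximately 10 d in greenhouse, injury was visually rated 0 (no effect) to 100 (complete control) against untreated controls.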

[2] = system: foxtail, giant (giant foxtail, Setaria faberii); experiment: as above; conditions: 0 is no effect, 100 is complete control
How it was run: as §1

kochia (Kochia scoparia) [3] = experiment: as above; conditions: 0 is no effect, 100 is complete control
How it was run: as §1

[4] = system: pigweed (Amaranthus retroflexus); experiment: as above; conditions: 0 is no effect, 100 is complete control
How it was run: as §1

[5] = system: ragweed (common ragweed, Ambrosia elatior); experiment: as above; conditions: 0 is no effect, 100 is complete control
How it was run: as §1

[6] = system: ryegrass, It. (Italian ryegrass, Lolium multiflorum); experiment: as above; conditions: 0 is no effect, 100 is complete control
How it was run: as §1

[7] = system: barnyardgrass (Echinochloa crus-galli); experiment: Test B flooded paddy test, visual rating; conditions: Flood, 250 g ai/ha, applied to paddy water, rated after 13 to 15 d
How it was run: (§2)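 Plants at the 2-leaf stage were flooded to 3 cm above soil, and test compounds were applied directly into the paddy water, which was held at that depth throughout. After 13 to 15 d in a greenhouse, injury was rated visually against untreated controls on a 0–100 scale (0 no effect, 100 complete control).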

[8] = system: ducksalad (Heteranthera limosa); experiment: Test B flooded paddy test, visual rating; conditions: Flood, 250 g ai/ha, applied to paddy water, rated after 13 to 15 d
How it was run: as §2

rice (Oryza sativa) = experiment: Test B flooded paddy test, visual rating; conditions: Flood, 250 g ai/ha, applied to paddy water, rated after 13 to 15 d
How it was run: as §2

[9] = system: sedge, umbrella (small-flower umbrella sedge, Cyperus difformis); experiment: Test B flooded paddy test, visual rating; conditions: Flood, 250 g ai/ha, applied to paddy water, rated after 13 to 15 d
How it was run: as §2

[10] = system: barnyardgrass (Echinochloa crus-galli); experiment: Test A postemergence application, visual injury rating; conditions: 0 to 100 scale, 0 no effect, 100 complete control
How it was run: as §1

[11] = system: blackgrass (Alopecurus myosuroides); experiment: as above; conditions: 0 to 100 scale, 0 no effect, 100 complete control
How it was run: as §1

corn (Zea mays) = experiment: as above; conditions: 0 to 100 scale, 0 no effect, 100 complete control
How it was run: as §1

[12] = system: foxtail, giant (giant foxtail, Setaria faberii); experiment: as above; conditions: 0 to 100 scale, 0 no effect, 100 complete control
How it was run: as §1

[13] = system: galium (catchweed bedstraw, Galium aparine); experiment: as above; conditions: 0 to 100 scale, 0 no effect, 100 complete control
How it was run: as §1

kochia (Kochia scoparia) [14] = experiment: as above; conditions: 0 to 100 scale, 0 no effect, 100 complete control
How it was run: as §1

[15] = system: pigweed (Amaranthus retroflexus); experiment: as above; conditions: 0 to 100 scale, 0 no effect, 100 complete control
How it was run: as §1

[16] = system: ragweed (common ragweed, Ambrosia elatior); experiment: as above; conditions: 0 to 100 scale, 0 no effect, 100 complete control
How it was run: as §1

[17] = system: ryegrass, It. (Italian ryegrass, Lolium multiflorum); experiment: as above; conditions: 0 to 100 scale, 0 no effect, 100 complete control
How it was run: as §1

[18] = system: wheat (Triticum aestivum); experiment: as above; conditions: 0 to 100 scale, 0 no effect, 100 complete control
How it was run: as §1

COC(=O)Oc1c(C)nn(C)c(=O)c1-c1ccc(Cl)c2oc(C)cc12 [Compound 53]
10: Barnyardgrass plant response rating ([10]; 125 g ai/ha) | Ryegrass, It. plant response rating ([17]; 31 g ai/ha)
0: Plant response rating (0 to 100 scale), Barnyardgrass ([1]; 31 g ai/ha) | Plant response rating (0 to 100 scale), Foxtail, Giant ([2]; 31 g ai/ha) | Plant response rating (0 to 100 scale), Foxtail, Giant ([2]; 125 g ai/ha) | Plant response rating (0 to 100 scale), Kochia (kochia (Kochia scoparia) [3]; 31 g ai/ha) | Plant response rating (0 to 100 scale), Kochia (kochia (Kochia scoparia) [3]; 125 g ai/ha) | Plant response rating (0 to 100 scale), Pigweed ([4]; 31 g ai/ha) | Plant response rating (0 to 100 scale), Ragweed ([5]; 125 g ai/ha) | Plant response rating (0 to 100 scale), Ryegrass, It. ([6]; 31 g ai/ha) | Barnyardgrass plant response rating (0 to 100 scale, 0 is no effect, 100 is complete control) [7] | Ducksalad plant response rating (0 to 100 scale, 0 is no effect, 100 is complete control) [8] | Rice plant response rating (0 to 100 scale, 0 is no effect, 100 is complete control) (rice (Oryza sativa)) | Sedge, Umbrella plant response rating (0 to 100 scale, 0 is no effect, 100 is complete control) [9] | Barnyardgrass plant response rating ([10]; 31 g ai/ha) | Blackgrass plant response rating ([11]; 31 g ai/ha) | Blackgrass plant response rating ([11]; 125 g ai/ha) | Corn plant response rating (corn (Zea mays); 31 g ai/ha) | Corn plant response rating (corn (Zea mays); 125 g ai/ha) | Foxtail, Giant plant response rating ([12]; 31 g ai/ha) | Foxtail, Giant plant response rating ([12]; 125 g ai/ha) | Kochia plant response rating (kochia (Kochia scoparia) [14]; 31 g ai/ha) | Kochia plant response rating (kochia (Kochia scoparia) [14]; 125 g ai/ha) | Ragweed plant response rating ([16]; 31 g ai/ha) | Wheat plant response rating ([18]; 31 g ai/ha) | Wheat plant response rating ([18]; 125 g ai/ha)
80: Galium plant response rating ([13]; 125 g ai/ha)
50: Pigweed plant response rating ([15]; 125 g ai/ha)
60: Plant response rating (0 to 100 scale), Ryegrass, It. ([6]; 125 g ai/ha) | Galium plant response rating ([13]; 31 g ai/ha)
40: Plant response rating (0 to 100 scale), Pigweed ([4]; 125 g ai/ha)
30: Plant response rating (0 to 100 scale), Barnyardgrass ([1]; 125 g ai/ha) | Pigweed plant response rating ([15]; 31 g ai/ha) | Ragweed plant response rating ([16]; 125 g ai/ha) | Ryegrass, It. plant response rating ([17]; 125 g ai/ha)
20: Plant response rating (0 to 100 scale), Ragweed ([5]; 31 g ai/ha)

CC(=O)Oc1c(C)nn(C)c(=O)c1-c1ccc(Cl)c2oc(C)cc12 [Compound 54]
0: Plant response rating (0 to 100 scale), Barnyardgrass ([1]; 31 g ai/ha) | Plant response rating (0 to 100 scale), Barnyardgrass ([1]; 125 g ai/ha) | Plant response rating (0 to 100 scale), Foxtail, Giant ([2]; 31 g ai/ha) | Plant response rating (0 to 100 scale), Foxtail, Giant ([2]; 125 g ai/ha) | Plant response rating (0 to 100 scale), Kochia (kochia (Kochia scoparia) [3]; 31 g ai/ha) | Plant response rating (0 to 100 scale), Kochia (kochia (Kochia scoparia) [3]; 125 g ai/ha) | Plant response rating (0 to 100 scale), Pigweed ([4]; 31 g ai/ha) | Plant response rating (0 to 100 scale), Ragweed ([5]; 31 g ai/ha) | Barnyardgrass plant response rating (0 to 100 scale, 0 is no effect, 100 is complete control) [7] | Ducksalad plant response rating (0 to 100 scale, 0 is no effect, 100 is complete control) [8] | Rice plant response rating (0 to 100 scale, 0 is no effect, 100 is complete control) (rice (Oryza sativa)) | Barnyardgrass plant response rating ([10]; 31 g ai/ha) | Barnyardgrass plant response rating ([10]; 125 g ai/ha) | Blackgrass plant response rating ([11]; 31 g ai/ha) | Blackgrass plant response rating ([11]; 125 g ai/ha) | Corn plant response rating (corn (Zea mays); 31 g ai/ha) | Corn plant response rating (corn (Zea mays); 125 g ai/ha) | Foxtail, Giant plant response rating ([12]; 31 g ai/ha) | Foxtail, Giant plant response rating ([12]; 125 g ai/ha) | Kochia plant response rating (kochia (Kochia scoparia) [14]; 31 g ai/ha) | Ragweed plant response rating ([16]; 31 g ai/ha) | Ragweed plant response rating ([16]; 125 g ai/ha) | Wheat plant response rating ([18]; 31 g ai/ha) | Wheat plant response rating ([18]; 125 g ai/ha)
60: Ryegrass, It. plant response rating ([17]; 125 g ai/ha)
40: Pigweed plant response rating ([15]; 125 g ai/ha)
10: Plant response rating (0 to 100 scale), Ragweed ([5]; 125 g ai/ha) | Kochia plant response rating (kochia (Kochia scoparia) [14]; 125 g ai/ha)
30: Plant response rating (0 to 100 scale), Ryegrass, It. ([6]; 31 g ai/ha) | Pigweed plant response rating ([15]; 31 g ai/ha)
50: Plant response rating (0 to 100 scale), Ryegrass, It. ([6]; 125 g ai/ha) | Galium plant response rating ([13]; 31 g ai/ha)
70: Sedge, Umbrella plant response rating (0 to 100 scale, 0 is no effect, 100 is complete control) [9] | Galium plant response rating ([13]; 125 g ai/ha)
20: Plant response rating (0 to 100 scale), Pigweed ([4]; 125 g ai/ha) | Ryegrass, It. plant response rating ([17]; 31 g ai/ha)

Cc1nn(C)c(=O)c(-c2ccc(Cl)c3ccsc23)c1O [Compound 55]
70: Ryegrass, It. plant response rating ([17]; 125 g ai/ha)
30: Pigweed plant response rating ([15]; 31 g ai/ha) | Ragweed plant response rating ([16]; 125 g ai/ha)
100: Plant response rating (0 to 100 scale), Ryegrass, It. ([6]; 125 g ai/ha) | Galium plant response rating ([13]; 125 g ai/ha) | Kochia plant response rating (kochia (Kochia scoparia) [14]; 125 g ai/ha)
10: Barnyardgrass plant response rating ([10]; 125 g ai/ha) | Blackgrass plant response rating ([11]; 125 g ai/ha)
20: Plant response rating (0 to 100 scale), Kochia (kochia (Kochia scoparia) [3]; 125 g ai/ha)
0: Plant response rating (0 to 100 scale), Barnyardgrass ([1]; 31 g ai/ha) | Plant response rating (0 to 100 scale), Barnyardgrass ([1]; 125 g ai/ha) | Plant response rating (0 to 100 scale), Foxtail, Giant ([2]; 31 g ai/ha) | Plant response rating (0 to 100 scale), Foxtail, Giant ([2]; 125 g ai/ha) | Plant response rating (0 to 100 scale), Kochia (kochia (Kochia scoparia) [3]; 31 g ai/ha) | Plant response rating (0 to 100 scale), Pigweed ([4]; 31 g ai/ha) | Plant response rating (0 to 100 scale), Ragweed ([5]; 31 g ai/ha) | Plant response rating (0 to 100 scale), Ragweed ([5]; 125 g ai/ha) | Barnyardgrass plant response rating (0 to 100 scale, 0 is no effect, 100 is complete control) [7] | Ducksalad plant response rating (0 to 100 scale, 0 is no effect, 100 is complete control) [8] | Rice plant response rating (0 to 100 scale, 0 is no effect, 100 is complete control) (rice (Oryza sativa)) | Sedge, Umbrella plant response rating (0 to 100 scale, 0 is no effect, 100 is complete control) [9] | Barnyardgrass plant response rating ([10]; 31 g ai/ha) | Blackgrass plant response rating ([11]; 31 g ai/ha) | Corn plant response rating (corn (Zea mays); 31 g ai/ha) | Corn plant response rating (corn (Zea mays); 125 g ai/ha) | Foxtail, Giant plant response rating ([12]; 31 g ai/ha) | Foxtail, Giant plant response rating ([12]; 125 g ai/ha) | Ragweed plant response rating ([16]; 31 g ai/ha) | Wheat plant response rating ([18]; 31 g ai/ha) | Wheat plant response rating ([18]; 125 g ai/ha)
40: Kochia plant response rating (kochia (Kochia scoparia) [14]; 31 g ai/ha) | Ryegrass, It. plant response rating ([17]; 31 g ai/ha)
60: Plant response rating (0 to 100 scale), Pigweed ([4]; 125 g ai/ha) | Pigweed plant response rating ([15]; 125 g ai/ha)
80: Plant response rating (0 to 100 scale), Ryegrass, It. ([6]; 31 g ai/ha) | Galium plant response rating ([13]; 31 g ai/ha)
